Data published in US20130203649A1, “INHIBITORS OF TLR SIGNALING BY TARGETING TIR DOMAIN INTERFACES” (UNIVERSITY OF MARYLAND, BALTIMORE, priority 2012, published 2013).
Residues, ends and D or L forms follow the SMILES beside them. No end group written: not given here.

Experiments:
TLR4 [1] = assay: LPS-induced cytokine mRNA expression in mouse macrophages (real-time RT-PCR); format: cell-based; details: for LPS-induced IFNβ and Rantes cytokine mRNA production / LPS-induced IL-1β mRNA production: 5 μM peptide; for LPS-induced IFNβ and Rantes cytokine mRNA production / LPS-induced IL-1β mRNA production / LPS-induced IL-1β, IFNβ, and RANTES mRNA / LPS-induced TNFα mRNA expression: LPS 10 ng/ml, 1 h
Description: C57BL/6J mice were obtained from The Jackson Laboratory (Bar Harbor, Me.). Primary peritoneal macrophages were obtained by peritoneal lavage 4 days after intraperitoneal injection (3 ml) of sterile 3% thioglycolate broth. Washed cells were resuspended in RPMI 1640 which contained 2% FBS, 1% penicillin:streptomycin and 2 mM L-glutamine. After plating, cells were incubated overnight at 37° C. and then washed with PBS to remove non-adherent cells. Cells were exposed to peptides 30 min before stimulation with a TLR agonist.
Total cellular RNA was isolated using Tripure from Roche (San Francisco, Calif.) following manufacture's protocol. RNA was then reverse transcribed using AMV Reverse Transcriptase from Promega (Madison, Wis.) with poly-T priming as per manufacturer's directions. cDNA was then quantified by real-time PCR using Applied Biosystems Fast SYBR Green PCR Master Mix and an ABI Prism 7500HT cycler. Primers used for detection: hypoxanthine phosphoribosyltransferase (HPRT) (forward: […] (SEQ ID NO:51), reverse: […] (SEQ ID NO:52)), TNFα (forward: […] (SEQ ID NO:53), reverse: […] (SEQ ID NO:54)), IL-1β (forward: […] (SEQ ID NO:55), reverse: […] (SEQ ID NO:56)), IFNβ (forward: […] (SEQ ID NO:57), reverse: CTCGGACCACCATCCAGG (SEQ ID NO:58)) and RANTES (forward: […] (SEQ ID NO:59), reverse: […] (SEQ ID NO:60)). The primers were designed using Primer Express 2.0 (Applied Biosystems). Using HPRT as reference, the ΔCt method was used to calculate relative gene expression. One-way ANOVA was preformed, as well as Dunnett's multiple comparison post hoc test with a p≦0.01 selected as the level of significance.
Total RNA was isolated with Nucleospin RNA II kits (Macherey-Nagel, Bethlehem, Pa.), followed by DNase digestion. cDNA was synthesized from 1 μg RNA using Goscript transcriptase (Promega), and subjected to real-time PCR with gene-specific primers for HPRT, TNF-α, IL-1β, IFNβ, and RANTES on H7900 ABI system using Fast SYBR Green master mix (Applied Biosystems, Foster City, Calif.).
To evaluate peptide-inhibitory activities, we first measured LPS-induced cytokine mRNA expression. […] […] Decoy peptide TM4 is derived from the BB loop of TRAM TIR; we previously identified this peptide as an effective TLR4 inhibitor (19).

TLR4 [2] = assay: Inhibition of TLR4 signaling in thioglycollate-elicited mouse macrophages (effective concentration, overall inhibitory activity); format: cell-based; details: for Effective conc.: TLR4 pathway, thioglycollate-elicited mouse macrophages; for Inhibition of TLR4 signaling (overall): LPS-stimulated mouse macrophages
Summary of the method: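 Thioglycollate-elicited peritoneal macrophages from C57BL/6J mice, adherent after overnight culture in RPMI with 2% FBS; cell-permeating (Antennapedia-fused) decoy peptides added 30 min before agonist. TLR4 stimulated with E. coli K235 LPS at 100 ng/ml final.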

Compound	LPS-induced (TLR4-mediated) cytokine mRNA expression (TLR4 [1]; 5 or 20 μM peptide 30 min before LPS, 1 or 5 h)	Effective conc. (TLR4 [2])	LPS-induced IFNβ and Rantes cytokine mRNA production (TLR4 [1])	LPS-induced IL-1β mRNA production (TLR4 [1])	LPS-induced IL-1β, IFNβ, and RANTES mRNA (TLR4 [1]; 20 μM peptide)	LPS-induced TNFα mRNA expression (TLR4 [1]; 20 μM peptide)	Inhibition of TLR4 signaling (overall) (TLR4 [2])	LPS-induced transcriptional activation of IL-1β and IFN-β genes (TLR4 [1]; 20 μM peptide)
RQIKIWFQNRRMKWKKCLQDAIDHSGFT [TF5]	inhibit	20 µM						
RQIKIWFQNRRMKWKKGGFYQVKEAVIHY [TR11]		20 µM	significantly inhibited	moderately inhibited	stronger inhibition	inhibit potently	potently inhibited	
RQIKIWFQNRRMKWKKAAYPPELRFMYYVD [TR9]		20 µM	significantly inhibited	moderately inhibited	stronger inhibition	inhibit potently	potently inhibited	
RQIKIWFQNRRMKWKKPGFLRDPWCKYQML [TR6]			significantly inhibited	moderately inhibited	stronger inhibition	inhibit potently	potently inhibited	blocked
RQIKIWFQNRRMKWKKEGSQASLRCF [TR3]			significantly inhibited	moderately inhibited	stronger inhibition	inhibit potently	potently inhibited	
CC[C@H](C)[C@H](NC(=O)[C@H](CCCCN)NC(=O)[C@@H](NC(=O)[C@H](CCC(N)=O)NC(=O)[C@@H](N)CCCNC(=N)N)[C@@H](C)CC)C(=O)N[C@@H](Cc1c[nH]c2ccccc12)C(=O)N[C@@H](Cc1ccccc1)C(=O)N[C@@H](CCC(N)=O)C(=O)N[C@@H](CC(N)=O)C(=O)N[C@@H](CCCNC(=N)N)C(=O)N[C@@H](CCCNC(=N)N)C(=O)N[C@@H](CCSC)C(=O)N[C@@H](CCCCN)C(=O)N[C@@H](Cc1c[nH]c2ccccc12)C(=O)N[C@@H](CCCCN)C(=O)N[C@@H](CCCCN)C(=O)N[C@@H](CCC(=O)O)C(=O)N[C@@H](CC(C)C)C(=O)N[C@@H](CS)C(=O)N[C@@H](CCC(N)=O)C(=O)N[C@@H](C)C(=O)N[C@@H](CC(C)C)C(=O)N[C@@H](CO)C(=O)N[C@@H](CCCNC(=N)N)C(=O)N[C@@H](CO)C(=O)N[C@@H](Cc1c[nH]cn1)C(=O)N[C@@H](CS)C(=O)N[C@@H](CCCNC(=N)N)C(=O)O [TR5] (H-RQIKIWFQNRRMKWKKELCQALSRSHCR-OH)		20 µM	significantly inhibited	moderately inhibited	stronger inhibition	inhibit potently	potently inhibited	
